What was measured:
[1] = test system: interferon (α) induction in human peripheral blood mononuclear cells (PBMC); assay: Cytokine induction in human cells: interferon (α) secreted by PBMC, ELISA; format: cell-based; settings: lowest concentration found to induce interferon, incubated 18 to 24 hours at 37° C.
Description: (§1) An in vitro human blood cell system is used to assess cytokine induction. Activity is based on the measurement of interferon and tumor necrosis factor (α) (IFN and TNF, respectively) secreted into culture media as described by Testerman et. al. In “Cytokine Induction by the Immunomodulators Imiquimod and S-27609”, Journal of Leukocyte Biology, 58, 365–372 (September, 1995).
(§2) Whole blood from healthy human donors is collected by venipuncture into EDTA vacutainer tubes. Peripheral blood mononuclear cells (PBMC) are separated from whole blood by density gradient centrifugation using Histopaque®-1077. Blood is diluted 1:1 with Dulbecco's Phosphate Buffered Saline (DPBS) or Hank's Balanced Salts Solution (HBSS). The PBMC layer is collected and washed twice with DPBS or HBSS and resuspended at 4×10^6 cells/mL in RPMI complete. The PBMC suspension is added to 48 well flat bottom sterile tissue culture plates (Costar, Cambridge, Mass. or Becton Dickinson Labware, Lincoln Park, N.J.) containing an equal volume of RPMI complete media containing test compound.
(§3) The compounds are solubilized in dimethyl sulfoxide (DMSO). The DMSO concentration should not exceed a final concentration of 1% for addition to the culture wells. The compounds are generally tested at concentrations ranging from 30–0.014 μM.
(§4) The solution of test compound is added at 60 μM to the first well containing RPMI complete and serial 3 fold dilutions are made in the wells. The PBMC suspension is then added to the wells in an equal volume, bringing the test compound concentrations to the desired range (30–0.014 μM). The final concentration of PBMC suspension is 2×10^6 cells/mL. The plates are covered with sterile plastic lids, mixed gently and then incubated for 18 to 24 hours at 37° C. in a 5% carbon dioxide atmosphere.
(§5) Following incubation the plates are centrifuged for 10 minutes at 1000 rpm (˜200×g) at 4° C. The cell-free culture supernatant is removed with a sterile polypropylene pipet and transferred to sterile polypropylene tubes. Samples are maintained at −30 to −70° C. until analysis. The samples are analyzed for interferon (α) by ELISA and for tumor necrosis factor (α) by ELISA or IGEN Assay
Interferon (α) concentration is determined by ELISA using a Human Multi-Species kit from PBL Biomedical Laboratories, New Brunswick, N.J. Results are expressed in pg/mL.
(§6) The table below lists the lowest concentration found to induce interferon and the lowest concentration found to induce tumor necrosis factor for each compound.

[2] = test system: tumor necrosis factor (α) induction in human peripheral blood mononuclear cells (PBMC); assay: Cytokine induction in human cells: tumor necrosis factor (α) secreted by PBMC, ELISA or IGEN assay; format: cell-based; settings: lowest concentration found to induce tumor necrosis factor, incubated 18 to 24 hours at 37° C.
Description: as §1, §2, §3, §4, §5
Tumor necrosis factor (α) (TNF) concentration is determined using ELISA kits available from Biosource International, Camarillo, Calif. Alternately, the TNF concentration can be determined by Origen® M-Series Immunoassay and read on an IGEN M-8 analyzer from IGEN International, Gaithersburg, Md. The immunoassay uses a human TNF capture and detection antibody pair from Biosource International, Camarillo, Calif. Results are expressed in pg/mL.
as §6

| melting point [°C] | SMILES | minimal effective concentration [1] [µM] | minimal effective concentration [2] [µM] |
| --- | --- | --- | --- |
| 184.8 to 185.8 | COCCc1nc2c(N)nc3ccccc3c2n1CCOCCN(C)C(=O)Nc1ccccc1 [Example 3, N-(2-{2-[4-amino-2-(2-methoxyethyl)-1H-imidazo[4,5-c]quinolin-1-yl]ethoxy}ethyl)-N-methyl-N′-phenylurea] | 0.01 | 0.37 |
| 207 to 209 | Cc1nc2c(N)nc3ccccc3c2n1CCOCCNC(=O)NC1CCCCC1 [Example 49, N-{2-[2-(4-amino-2-methyl-1H-imidazo[4,5-c]quinolin-1-yl)ethoxy]ethyl}-N′-cyclohexylurea] | – | – |
| 198 to 200 | CCc1nc2c(N)nc3ccccc3c2n1CCOCCNC(=O)NC1CCCCC1 [Example 51, N-{2-[2-(4-amino-2-ethyl-1H-imidazo[4,5-c]quinolin-1-yl)ethoxy]ethyl}-N′-cyclohexylurea] | – | – |
| 182 to 184 | CCc1nc2c(N)nc3ccccc3c2n1CCOCCNC(=O)N1CCOCC1 [Example 52, N-{2-[2-(4-amino-2-ethyl-1H-imidazo[4,5-c]quinolin-1-yl)ethoxy]ethyl}morpholine-4-carboxamide] | – | – |
| 183 to 186 | CCOCc1nc2c(N)nc3ccccc3c2n1CCOCCNC(=O)Nc1ccccc1 [Example 53, N-(2-{2-[4-amino-2-(ethoxymethyl)-1H-imidazo[4,5-c]quinolin-1-yl]ethoxy}ethyl)-N′-phenylurea] | – | – |
| 161 to 164 | CCOCc1nc2c(N)nc3ccccc3c2n1CCOCCNC(=O)NC1CCCCC1 [Example 54, N-(2-{2-[4-amino-2-(ethoxymethyl)-1H-imidazo[4,5-c]quinolin-1-yl]ethoxy}ethyl)-N′cyclohexylurea] | – | – |
| 178 to 181 | CCOCc1nc2c(N)nc3ccccc3c2n1CCOCCNC(=O)N1CCOCC1 [Example 55, N-(2-{2-[4-amino-2-(ethoxymethyl)-1H-imidazo[4,5-c]quinolin-1-yl]ethoxy}ethyl)morpholine-4-carboxamide] | – | – |

— US7214675B2, “Urea substituted imidazoquinoline ethers” (3M Innovative Properties Company, priority 2000, dated 2007)
